From US20180251431A1 (VERTEX PHARMACEUTICALS INCORPORATED, priority 2016, published 2018)

Tested on: HEK293 cells
Experiment: HEK293 VLCFA-LPC IC50 determination (13C-labeled C26:0 LPC by UHPLC/MS)
Format: cell-based, human
Conditions: Homo sapiens, HEK293, HEK293 cells; average of one or more replicates; read-out: Average HEK293 IC50
Summary of the method: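 Suspension HEK293 cells (final 0.5 million/mL after mixing with equal volume) incubated 48 hours with compound plus 13C-acetate (1.0 mg/mL in added media), shaking at 37° C. Lipids extracted with hexane/isopropanol or methanol, C13:0 LPC standard. UHPLC/MS of 13C-labeled C26:0 LPC (638.500/104.100 m/z); IC50 by four-parameter fit.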

Structure (SMILES) | IC50 [nM]
N#Cc1cccc(C2(C(=O)Nc3ccn(-c4ccccc4)n3)CC2)c1 [Compound 244, 1-(3-cyanophenyl)-N-(1-phenylpyrazol-3-yl)cyclopropanecarboxamide] | 280
Cc1cccc(C2(C(=O)Nc3ccn(-c4ccnc(F)c4)n3)CC2)c1 [Compound 245, N-[1-(2-fluoro-4-pyridyl)pyrazol-3-yl]-1-(m-tolyl)cyclopropanecarboxamide] | 260
CCOc1ccc(C2(C(=O)Nc3ccn(-c4ccnc(F)c4)n3)CC2)cc1 [Compound 246, 1-(4-ethoxyphenyl)-N-[1-(2-fluoro-4-pyridyl)pyrazol-3-yl]cyclopropanecarboxamide] | 2800
N#Cc1ccccc1C1(C(=O)Nc2ccn(-c3ccnc(F)c3)n2)CC1 [Compound 247, 1-(2-cyanophenyl)-N-[1-(2-fluoro-4-pyridyl)pyrazol-3-yl]cyclopropanecarboxamide] | 2500
Cc1cc(C)cc(C2(C(=O)Nc3ccn(-c4ccnc(F)c4)n3)CC2)c1 [Compound 248, 1-(3,5-dimethylphenyl)-N-[1-(2-fIuoro-4-pyridyl)pyrazol-3-yl]cyclopropanecarboxamide] | > 5000
COc1ccc(C2(C(=O)Nc3ccn(-c4ccnc(F)c4)n3)CC2)cc1 [Compound 249, N-[1-(2-fluoro-4-pyridyl)pyrazol-3-yl]-1-(4-methoxyphenyl)cyclopropanecarboxamide] | 640
COc1cccc(C2(C(=O)Nc3ccn(-c4ccnc(F)c4)n3)CC2)c1 [Compound 250, N-[1-(2-fluoro-4-pyridyl)pyrazol-3-yl]-1-(3-methoxyphenyl)cyclopropanecarboxamide] | 170
O=C(Nc1ccn(-c2ccnc(F)c2)n1)C1(c2ccccc2Cl)CC1 [Compound 251, 1-(2-chlorophenyl)-N-[1-(2-fluoro-4-pyridyl)pyrazol-3-yl]cyclopropanecarboxamide] | 110
Cc1ccccc1C1(C(=O)Nc2ccn(-c3ccnc(F)c3)n2)CC1 [Compound 252, N-[1-(2-fluoro-4-pyridyl)pyrazol-3-yl]-1-(o-tolyl)cyclopropanecarboxamide] | 400
O=C(Nc1ccn(-c2ccnc(F)c2)n1)C1(c2ccc(Cl)cc2Cl)CC1 [Compound 253, 1-(2,4-dichlorophenyl)-N-[1-(2-fluoro-4-pyridyl)pyrazol-3-yl]cyclopropanecarboxamide] | 120
O=C(Nc1ccn(-c2ccnc(F)c2)n1)C1(c2cccc(F)c2)CC1 [Compound 254, 1-(3-fluorophenyl)-N-[1-(2-fluoro-4-pyridyl)pyrazol-3-yl]cyclopropanecarboxamide] | 190
O=C(Nc1ccn(-c2ccnc(F)c2)n1)C1(c2ccc(F)cc2)CC1 [Compound 255, 1-(4-fluorophenyl)-N-[1-(2-fluoro-4-pyridyl)pyrazol-3-yl]cyclopropanecarboxamide] | 100
O=C(Nc1ccn(-c2ccnc(F)c2)n1)C1(c2cccc(Cl)c2)CC1 [Compound 256, 1-(3-chlorophenyl)-N-[1-(2-fluoro-4-pyridyl)pyrazol-3-yl]cyclopropanecarboxamide] | 300
O=C(Nc1ccn(-c2ccnc(F)c2)n1)C1(c2ccc(Cl)cc2)CC1 [Compound 257, 1-(4-chlorophenyl)-N-[1-(2-fluoro-4-pyridyl)pyrazol-3-yl]cyclopropanecarboxamide] | 340
[2H]c1nc(C)nc([2H])c1-n1ccc(NC(=O)C2(c3ccccc3F)CC2)n1 [Compound 258, N-[1-(4,6-dideuterio-2-methyl-pyrimidin-5-yl)pyrazol-3-yl]-1-(2-fluorophenyl)cyclopropanecarboxamide] | > 5000
COc1cc(-n2ccc(NC(=O)C3(c4ccccc4F)CC3)n2)ccn1 [Compound 259, 1-(2-fluorophenyl)-N-(1-(2-methoxypyridin-4-yl)-1H-pyrazol-3-yl)cyclopropane-1-carboxamide] | 51
O=C(Nc1ccn(-c2ccnc(F)c2)n1)C1(c2cc(F)ccc2F)CC1 [Compound 260, 1-(2,5-difluorophenyl)-N-[1-(2-fluoro-4-pyridyl)pyrazol-3-yl]cyclopropanecarboxamide] | 170
O=C(Nc1ccn(-c2ccccc2)n1)C1(c2cc(F)ccc2F)CC1 [Compound 261, 1-(2,5-difluorophenyl)-N-(1-phenylpyrazol-3-yl)cyclopropanecarboxamide] | 160
O=C(Nc1ccn(-c2ccnc(F)c2)n1)C1(c2ccc(Cl)cc2F)CC1 [Compound 262, 1-(4-chloro-2-fluoro-phenyl)-N-[1-(2-fluoro-4-pyridyl)pyrazol-3-yl]cyclopropanecarboxamide] | 300
O=C(Nc1ccn(-c2ccccc2)n1)C1(c2ccc(Cl)cc2F)CC1 [Compound 263, 1-(4-chloro-2-fluoro-phenyl)-N-(1-phenylpyrazol-3-yl)cyclopropanecarboxamide] | > 5000
O=C(Nc1ccn(-c2ccnc(F)c2)n1)C1(c2cc(Cl)ccc2F)CC1 [Compound 264, 1-(5-chloro-2-fluoro-phenyl)-N-[1-(2-fluoro-4-pyridyl)pyrazol-3-yl]cyclopropanecarboxamide] | 190
O=C(Nc1ccn(-c2ccccc2)n1)C1(c2cc(Cl)ccc2F)CC1 [Compound 265, 1-(5-chloro-2-fluoro-phenyl)-N-(1-phenylpyrazol-3-yl)cyclopropanecarboxamide] | 240
O=C(Nc1ccn(-c2ccnc(F)c2)n1)C1(c2c(F)cccc2F)CC1 [Compound 266, 1-(2,6-difluorophenyl)-N-[1-(2-fluoro-4-pyridyl)pyrazol-3-yl]cyclopropanecarboxamide] | 17
O=C(Nc1ccn(-c2ccccc2)n1)C1(c2c(F)cccc2F)CC1 [Compound 267, 1-(2,6-difluorophenyl)-N-(1-phenylpyrazol-3-yl)cyclopropanecarboxamide] | 13
O=C(Nc1ccn(-c2ccnc(F)c2)n1)C1(c2cccc(F)c2F)CC1 [Compound 268, 1-(2,3-difluorophenyl)-N-[1-(2-fluoro-4-pyridyl)pyrazol-3-yl]cyclopropanecarboxamide] | 140
O=C(Nc1ccn(-c2ccccc2)n1)C1(c2cccc(F)c2F)CC1 [Compound 269, 1-(2,3-difluorophenyl)-N-(1-phenylpyrazol-3-yl)cyclopropanecarboxamide] | 98
O=C(Nc1ccn(-c2ccnc(F)c2)n1)C1(c2cc(F)cc(F)c2)CC1 [Compound 270, 1-(3,5-difluorophenyl)-N-[1-(2-fluoro-4-pyridyl)pyrazol-3-yl]cyclopropanecarboxamide] | 280
O=C(Nc1ccn(-c2ccccc2)n1)C1(c2cc(F)cc(F)c2)CC1 [Compound 271, 1-(3,5-difluorophenyl)-N-(1-phenylpyrazol-3-yl)cyclopropanecarboxamide] | 650
Cc1ccc(F)c(C2(C(=O)Nc3ccn(-c4ccnc(F)c4)n3)CC2)c1Cl [Compound 272, 1-(2-chloro-6-fluoro-3-methyl-phenyl)-N-[1-(2-fluoro-4-pyridyl)pyrazol-3-yl]cyclopropanecarboxamide] | 460
O=C(Nc1ccn(-c2ccnc(F)c2)n1)C1(c2c(F)cccc2Cl)CC1 [Compound 274, 1-(2-chloro-6-fluorophenyl)-N-(1-(2-fluoropyridin-4-yl)-1H-pyrazol-3-yl)cyclopropane-1-carboxamide] | 37
